{
  "source": "patent US6753345B2",
  "about": "“7-hexanolytaxol and methods for preparing the same” (Hauser, Inc., priority 1998, dated 2004)",
  "key": {"CCRF-CEM cells": {"tested_on": "CCRF-CEM cells", "assay": "G2/M arrest", "type": "cell-based", "settings": "minimum concentration that results in 60% of CCRF-CEM cells to arrest in G2-M"}, "NCI-H322M [1]": {"tested_on": "NCI-H322M", "settings": "NCI-H322M (Non-Small Cell Lung Cancer); PG=0; 48 hour incubation"}, "NCI-H322M [2]": {"tested_on": "NCI-H322M", "assay": "cells", "settings": "Homo sapiens, 48 h"}, "LOX-IMVI": {"tested_on": "LOX-IMVI", "assay": "cells", "settings": "Homo sapiens, 48 h, read-out: Log10 GI50 (converted)"}, "IGR-OV1": {"tested_on": "IGR-OV1", "assay": "SRB cytotoxicity screening assay (Ovarian)"}, "OVCAR-4": {"tested_on": "OVCAR-4", "assay": "SRB cytotoxicity screening assay (Ovarian)"}, "OVCAR-5": {"tested_on": "OVCAR-5", "assay": "SRB cytotoxicity screening assay (Ovarian)"}, "OVCAR-6": {"tested_on": "OVCAR-6", "assay": "SRB cytotoxicity screening assay (Ovarian)", "settings": "48 h"}, "RPMI-8226": {"tested_on": "RPMI-8226", "assay": "SRB cytotoxicity screening assay (Leukemia)"}, "SR": {"tested_on": "SR", "assay": "SRB cytotoxicity screening assay (Leukemia)"}, "M14": {"tested_on": "M14", "assay": "SRB cytotoxicity screening assay (Melanoma)"}, "UACC-257": {"tested_on": "UACC-257", "assay": "SRB cytotoxicity screening assay (Melanoma)"}, "UACC-62": {"tested_on": "UACC-62", "assay": "SRB cytotoxicity screening assay (Melanoma)"}, "A498": {"tested_on": "A498", "assay": "SRB cytotoxicity screening assay (Renal Cancer)", "settings": "Homo sapiens, A498, 48 h"}, "RXF-393": {"tested_on": "RXF-393", "assay": "SRB cytotoxicity screening assay (Renal Cancer)"}, "SN12C": {"tested_on": "SN12C", "assay": "SRB cytotoxicity screening assay (Renal Cancer)", "settings": "Homo sapiens, SN12C, 48 h"}, "TK-10": {"tested_on": "TK-10", "assay": "SRB cytotoxicity screening assay (Renal Cancer)"}, "MCF7": {"tested_on": "MCF7", "assay": "SRB cytotoxicity screening assay (Breast Cancer)", "settings": "Homo sapiens, MCF7, 48 h"}, "PC-3": {"tested_on": "PC-3", "assay": "SRB cytotoxicity screening assay (Prostate Cancer)"}, "DU-145": {"tested_on": "DU-145", "assay": "SRB cytotoxicity screening assay (Prostate Cancer)"}, "HOP-62": {"tested_on": "HOP-62", "assay": "SRB cytotoxicity screening assay (Non-Small Cell Lung Cancer)"}, "NCI-H460": {"tested_on": "NCI-H460", "assay": "SRB cytotoxicity screening assay (Non-Small Cell Lung Cancer)", "settings": "NCI-H460 (Non-Small Cell Lung Cancer); PG=0; 48 hour incubation"}, "NCI-H522": {"tested_on": "NCI-H522", "assay": "SRB cytotoxicity screening assay (Non-Small Cell Lung Cancer)", "settings": "NCI-H522 (Non-Small Cell Lung Cancer); PG=0; 48 hour incubation"}, "[3]": {"tested_on": "cell line panel (60 lines, nine disease-related subpanels)", "assay": "SRB cytotoxicity screening assay, whole cell line panel (mean values)"}, "[4]": {"settings": "read-out: Log10 GI50 (converted)"}, "[5]": {"settings": "read-out: Log10 LC50 (converted)"}},
  "data": [
    {"compound": "CC(=O)O[C@H]1C(=O)[C@@]2(C)[C@H]([C@H](OC(=O)c3ccccc3)[C@]3(O)C[C@H](OC(=O)[C@H](O)[C@@H](NC(=O)c4ccccc4)c4ccccc4)C(C)=C1C3(C)C)[C@]1(OC(C)=O)CO[C@@H]1C[C@@H]2O", "note": "[Paclitaxel, paclitaxel, reference compound]", "values": [
      {"measurement": "G2/M arrest MED", "setting": "CCRF-CEM cells", "value": 0.025, "unit": "µg/mL"},
      {"measurement": "Log10 TGI", "setting": "NCI-H322M [1]", "value": "−4.46", "unit": "molar"},
      {"measurement": "GI50", "setting": "NCI-H322M [2]; [4]", "value": 0.0759, "unit": "nM"},
      {"measurement": "CC50", "setting": "NCI-H322M [2]; [5]", "value": "> 100000", "unit": "nM"},
      {"measurement": "GI50", "setting": "LOX-IMVI", "value": 0.00158, "unit": "nM"},
      {"measurement": "GI50", "setting": "IGR-OV1; Homo sapiens, IGROV-1, 48 h, read-out: Log10 GI50 (converted)", "value": 2.45, "unit": "nM"},
      {"measurement": "Log10 TGI", "setting": "IGR-OV1; IGR-OV1 (Ovarian), PG=0, 48 hour incubation", "value": "−4.19", "unit": "molar"},
      {"measurement": "GI50", "setting": "OVCAR-4; Homo sapiens, OVCAR-4, 48 h, read-out: Log10 GI50 (converted)", "value": 1580, "unit": "nM"},
      {"measurement": "Log10 TGI", "setting": "OVCAR-4; OVCAR-4 (Ovarian), PG=0, 48 hour incubation", "value": "−4.19", "unit": "molar"},
      {"measurement": "GI50", "setting": "OVCAR-5; Homo sapiens, OVCAR-5, 48 h, read-out: Log10 GI50 (converted)", "value": 0.417, "unit": "nM"},
      {"measurement": "CC50", "setting": "OVCAR-5; Homo sapiens, OVCAR-5, 48 h, read-out: Log10 LC50 (converted)", "value": "> 100000", "unit": "nM"},
      {"measurement": "Log10 TGI", "setting": "OVCAR-5; OVCAR-5 (Ovarian), PG=0, 48 hour incubation", "value": "−4.92", "unit": "molar"},
      {"measurement": "GI50", "setting": "OVCAR-6; [4]", "value": 0.0178, "unit": "nM"},
      {"measurement": "CC50", "setting": "OVCAR-6; [5]", "value": "> 100000", "unit": "nM"},
      {"measurement": "CC50", "setting": "RPMI-8226; Homo sapiens, RPMI-8226, 48 h, read-out: Log10 LC50 (converted)", "value": "> 100000", "unit": "nM"},
      {"measurement": "Log10 TGI", "setting": "RPMI-8226; RPMI-8226 (Leukemia), PG=0, 48 hour incubation", "value": ">−4.00", "unit": "molar"},
      {"measurement": "GI50", "setting": "SR; Homo sapiens, SR, 48 h, read-out: Log10 GI50 (converted)", "value": 4.57, "unit": "nM"},
      {"measurement": "CC50", "setting": "SR; Homo sapiens, SR, 48 h, read-out: Log10 LC50 (converted)", "value": "> 100000", "unit": "nM"},
      {"measurement": "Log10 TGI", "setting": "SR; SR (Leukemia), PG=0, 48 hour incubation", "value": ">−4.00", "unit": "molar"},
      {"measurement": "GI50", "setting": "M14; Homo sapiens, M14, 48 h, read-out: Log10 GI50 (converted)", "value": 0.00186, "unit": "nM"},
      {"measurement": "Log10 TGI", "setting": "M14; M14 (Melanoma), PG=0, 48 hour incubation", "value": "−4.62", "unit": "molar"},
      {"measurement": "GI50", "setting": "UACC-257; Homo sapiens, UACC-257, 48 h, read-out: Log10 GI50 (converted)", "value": 0.0501, "unit": "nM"},
      {"measurement": "CC50", "setting": "UACC-257; Homo sapiens, UACC-257, 48 h, read-out: Log10 LC50 (converted)", "value": 93300, "unit": "nM"},
      {"measurement": "Log10 TGI", "setting": "UACC-257; UACC-257 (Melanoma), PG=0, 48 hour incubation", "value": "−4.52", "unit": "molar"},
      {"measurement": "GI50", "setting": "UACC-62; Homo sapiens, UACC-62, 48 h, read-out: Log10 GI50 (converted)", "value": 0.0347, "unit": "nM"},
      {"measurement": "Log10 TGI", "setting": "UACC-62; UACC-62 (Melanoma), PG=0, 48 hour incubation", "value": "−4.71", "unit": "molar"},
      {"measurement": "GI50", "setting": "A498; [4]", "value": 72.4, "unit": "nM"},
      {"measurement": "CC50", "setting": "A498; [5]", "value": 74100, "unit": "nM"},
      {"measurement": "GI50", "setting": "RXF-393; Homo sapiens, RXF 393, 48 h, read-out: Log10 GI50 (converted)", "value": 4.79, "unit": "nM"},
      {"measurement": "CC50", "setting": "RXF-393; Homo sapiens, RXF 393, 48 h, read-out: Log10 LC50 (converted)", "value": 35500, "unit": "nM"},
      {"measurement": "Log10 TGI", "setting": "RXF-393; RXF-393 (Renal Cancer), PG=0, 48 hour incubation", "value": "−4.90", "unit": "molar"},
      {"measurement": "GI50", "setting": "SN12C; [4]", "value": 0.295, "unit": "nM"},
      {"measurement": "CC50", "setting": "SN12C; [5]", "value": "> 100000", "unit": "nM"},
      {"measurement": "GI50", "setting": "TK-10; Homo sapiens, TK-10, 48 h, read-out: Log10 GI50 (converted)", "value": 12.9, "unit": "nM"},
      {"measurement": "CC50", "setting": "TK-10; Homo sapiens, TK-10, 48 h, read-out: Log10 LC50 (converted)", "value": "> 100000", "unit": "nM"},
      {"measurement": "Log10 TGI", "setting": "TK-10; TK-10 (Renal Cancer), PG=0, 48 hour incubation", "value": ">−4.00", "unit": "molar"},
      {"measurement": "GI50", "setting": "MCF7; [4]", "value": 0.00204, "unit": "nM"},
      {"measurement": "CC50", "setting": "MCF7; [5]", "value": "> 100000", "unit": "nM"},
      {"measurement": "GI50", "setting": "PC-3; Homo sapiens, PC-3, 48 h, read-out: Log10 GI50 (converted)", "value": 0.0141, "unit": "nM"},
      {"measurement": "CC50", "setting": "PC-3; Homo sapiens, PC-3, 48 h, read-out: Log10 LC50 (converted)", "value": "> 100000", "unit": "nM"},
      {"measurement": "Log10 TGI", "setting": "PC-3; PC-3 (Prostate Cancer), PG=0, 48 hour incubation", "value": ">−4.00", "unit": "molar"},
      {"measurement": "Log10 TGI", "setting": "DU-145; DU-145 (Prostate Cancer), PG=0, 48 hour incubation", "value": ">−4.00", "unit": "molar"},
      {"measurement": "GI50", "setting": "DU-145; Homo sapiens, DU-145, 48 h, read-out: Log10 GI50 (converted)", "value": 0.417, "unit": "nM"},
      {"measurement": "CC50", "setting": "DU-145; Homo sapiens, DU-145, 48 h, read-out: Log10 LC50 (converted)", "value": "> 100000", "unit": "nM"},
      {"measurement": "Log10 TGI", "setting": "HOP-62; HOP-62 (Non-Small Cell Lung Cancer), PG=0, 48 hour incubation", "value": "−4.80", "unit": "molar"},
      {"measurement": "GI50", "setting": "HOP-62; Homo sapiens, HOP-62, 48 h, read-out: Log10 GI50 (converted)", "value": 0.214, "unit": "nM"},
      {"measurement": "CC50", "setting": "HOP-62; Homo sapiens, HOP-62, 48 h, read-out: Log10 LC50 (converted)", "value": 89100, "unit": "nM"},
      {"measurement": "Log10 TGI", "setting": "NCI-H460", "value": "−4.92", "unit": "molar"},
      {"measurement": "Log10 TGI", "setting": "NCI-H522", "value": "−11.20", "unit": "molar"},
      {"measurement": "Log10 TGI, MG_MID", "setting": "[3]; mean value over the cell line panel", "value": "−4.54", "unit": "molar"},
      {"measurement": "GI50", "setting": "[3]; read-out: Log10 GI50, MG_MID (converted)", "value": 0.0708, "unit": "nM"},
      {"measurement": "CC50", "setting": "[3]; read-out: Log10 LC50, MG_MID (converted)", "value": 87100, "unit": "nM"}
    ]}
  ]
}
